This is an account of results in US10195196B2, “1,4-disubstituted pyridazine analogs there of and methods for treating SMN-deficiency-related conditions” (NOVARTIS AG, priority 2012, dated 2019).

The structures appear in SMILES notation. pEC50: −log10 of the molar value.

This assay concerns SMN protein. Put plainly: cellular SMN ELISA (SMN protein elevation). It is filed as cell-based. As to conditions: myoblast cell line from SMNdelta7 mouse model, 24 hours treatment; for SMN activity Fold: fold activation over DMSO control. In short, it runs like this: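 Readout is fold SMN elevation versus DMSO plus EC50, measured by anti-SMN capture ELISA with 450 nm absorbance. Lysates came from a myoblast line of the SMNdelta7 mouse model after 24 h compound exposure, with dose ranges of 20 nM–10 μM (condition 1) or 100 pM–10 μM (condition 2).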

[1] abbreviates: ELISA condition 2: compound concentration 100 pM-10 uM.
Where [2] appears, read: ELISA condition 1: compound concentration range 20 nM-10 uM.

`CN(c1ccc(-c2cc(-c3cc4ccccc4[nH]3)ccc2O)nn1)C1CC(C)(C)NC(C)(C)C1` [Example 32-4, 4-(1H-indol-2-yl)-2-(6-(methyl(2,2,6,6-tetramethylpiperidin-4-yl)amino)pyridazin-3-yl)phenol]: under setting [1], the negative-log EC50 (pEC50) was 6.77 and the “SMN activity Fold” value came to 2.09 Fold.

As for `COc1cc(-c2cnn(C3CCCC3)c2)cc(O)c1-c1ccc(N(C)C2CC(C)(C)NC(C)(C)C2)nn1` [Example 26-4, 5-(1-cyclopentyl-1H-pyrazol-4-yl)-3-methoxy-2-(6-(methyl(2,2,6,6-tetramethylpiperidin-4-yl)amino)pyridazin-3-yl)phenol], under setting [1], the pEC50 is 6.19 and the “SMN activity Fold” value stood at 2.22 Fold.

As for `CN(c1ccc(-c2cc3ccc(O)cc3cc2O)nn1)C1CC(C)(C)NC(C)(C)C1` [Example 20-2, 3-(6-(methyl(2,2,6,6-tetramethylpiperidin-4-yl)amino)pyridazin-3-yl)naphthalene-2,7-diol], under setting [1], the pEC50 was 8.40 and the “SMN activity Fold” value was 2.79 Fold.

Consider `CN(c1ccc(-c2ccc(-c3cncnc3)cc2O)nn1)C1CC(C)(C)NC(C)(C)C1` [Example 41-12, 2-(6-(methyl(2,2,6,6-tetramethylpiperidin-4-yl)amino)pyridazin-3-yl)-5-(pyrimidin-5-yl)phenol], for which, under setting [1], the pEC50 is 6.99 and the “SMN activity Fold” value was 2.92 Fold.

Turning to `Oc1cc(-n2cccn2)ccc1-c1ccc(N2CCCNCC2)nn1` [Example 18-6, 2-(6-[1,4]diazepan-1-yl-pyridazin-3-yl)-5-pyrazol-1-yl-phenol], under setting [1], the pEC50 was 6.57 and the “SMN activity Fold” value is reported as 2.54 Fold.

In the case of `CN(c1ccc(-c2cc3ccc(OCCC(C)(C)O)cc3cc2O)nn1)C1CC(C)(C)NC(C)(C)C1` [Example 24-12, 7-(3-hydroxy-3-methylbutoxy)-3-(6-(methyl(2,2,6,6-tetramethylpiperidin-4-yl)amino)pyridazin-3-yl)naphthalen-2-ol], under setting [1], the pEC50 is 7.15 and the “SMN activity Fold” value was found to be 2.80 Fold.

As for `Oc1cc2ccccc2cc1-c1ccc(CC2CCNCC2)nn1` [Example 21-1, 3-(6-(piperidin-4-ylmethyl)pyridazin-3-yl)naphthalen-2-ol], under setting [1], the pEC50 is 6.02 and the “SMN activity Fold” value is listed as 2.35 Fold.

Regarding `CN(c1ccc(-c2cc3ccc(OC(C)(C)CCO)cc3cc2O)nn1)C1CC(C)(C)NC(C)(C)C1` [Example 24-11, 7-((4-hydroxy-2-methylbutan-2-yl)oxy)-3-(6-(methyl(2,2,6,6-tetramethylpiperidin-4-yl)amino)pyridazin-3-yl)naphthalen-2-ol], under setting [1], the negative logarithm of the EC50 (pEC50) is 6.88 and the “SMN activity Fold” value stood at 2.54 Fold.

In the case of `CN(c1ccc(-c2ccccc2O)nn1)C1CC(C)(C)NC(C)(C)C1` [Example 1-7, 2-(6-(methyl-(2,2,6,6-tetra-methylpiperidin-4-yl)amino)-pyridazin-3-yl)phenol], under setting [2], the pEC50 was 5.81 and the “SMN activity Fold” value came to 2.07 Fold.

For `COc1cc(O)c(-c2ccc(N(C)C3CC(C)(C)NC(C)(C)C3)nn2)c(OC)c1` [Example 3-9, 3,5-dimethoxy-2-{6-[methyl-(2,2,6,6-tetramethyl-piperidin-4-yl)-amino]-pyridazin-3-yl}-phenol], under setting [1], the pEC50 was 6.49 and the “SMN activity Fold” value is listed as 2.88 Fold.

Consider `Cn1ccc(-c2ccc(-c3ccc(OC4CC(C)(C)NC(C)(C)C4)nn3)c(O)c2)cc1=O` [Example 41-11, 4-(3-hydroxy-4-(6-((2,2,6,6-tetramethylpiperidin-4-yl)oxy)pyridazin-3-yl)phenyl)-1-methylpyridin-2(1H)-one], for which, under setting [1], the pEC50 was 7.92 and the “SMN activity Fold” value was found to be 2.78 Fold.

For the compound `OCCN1CCN(c2ccc(-c3ccc(-n4cccn4)cc3O)nn2)CC1` [Example 18-7, 2-{6-[4-(2-hydroxy-ethyl)-piperazin-1-yl]-pyridazin-3-yl}-5-pyrazol-1-yl-phenol], under setting [1], the negative-log EC50 (pEC50) is 5.58 and the “SMN activity Fold” value turned out to be 2.67 Fold.

`CN(c1ccc(-c2cc3ccc(OCCCNC(=O)OC(C)(C)C)cc3cc2O)nn1)C1CC(C)(C)NC(C)(C)C1` [Example 20-4, [3-(7-hydroxy-6-{6-[methyl-(2,2,6,6-tetramethyl-piperidin-4-yl)-amino]-pyridazin-3-yl}-naphthalen-2-yloxy)-propyl]-carbamic acid tert-butyl ester]: under setting [2], the pEC50 is 6.51 and the “SMN activity Fold” value is recorded as 2.32 Fold.

Regarding `CC1(C)CC(Nc2ccc(-c3ccc4scnc4c3)nn2)CC(C)(C)N1` [Example 2-2, 6-(benzo[d]thiazol-5-yl)-N-(2,2,6,6-tetramethyl-piperidin-4-yl)pyridazin-3-amine], under setting [2], the negative logarithm of the EC50 (pEC50) was 5.99 and the “SMN activity Fold” value stood at 2.37 Fold.

In the case of `Cc1cnc(-c2cc(O)c(-c3ccc(N(C)C4CC(C)(C)NC(C)(C)C4)nn3)c(OCc3ccccc3)c2)o1` [Example 27-1, 3-(benzyloxy)-2-(6-(methyl(2,2,6,6-tetramethylpiperidin-4-yl)amino)pyridazin-3-yl)-5-(5-methyloxazol-2-yl)phenol], under setting [1], the pEC50 is 6.52 and the “SMN activity Fold” value is on record as 2.35 Fold.

Take `CN(c1ccc(-c2cc(-c3ccn[nH]3)c(F)cc2O)nn1)C1CC(C)(C)NC(C)(C)C1` [Example 34-5, 5-fluoro-2-(6-(methyl(2,2,6,6-tetramethylpiperidin-4-yl)amino)pyridazin-3-yl)-4-(1H-pyrazol-5-yl)phenol]: under setting [1], the pEC50 is 7.25 and the “SMN activity Fold” value is listed as 2.75 Fold.

Consider `CN(c1ccc(-c2cc3ccc(O)c(Br)c3cc2O)nn1)C1CC(C)(C)NC(C)(C)C1` [Example 24-4, 1-bromo-6-(6-(methyl(2,2,6,6-tetramethylpiperidin-4-yl)amino)pyridazin-3-yl)naphthalene-2,7-diol], for which, under setting [1], the pEC50 is 7.80 and the “SMN activity Fold” value turned out to be 3.06 Fold.

As for `CC1(C)CC(Nc2ccc(-c3c(O)cc(-c4cn[nH]c4)cc3OC(F)(F)F)nn2)CC(C)(C)N1` [Example 25-3, 5-(1H-pyrazol-4-yl)-2-(6-((2,2,6,6-tetramethylpiperidin-4-yl)amino)pyridazin-3-yl)-3-(trifluoromethoxy)phenol], under setting [1], the pEC50 is 6.92 and the “SMN activity Fold” value turned out to be 2.39 Fold.

Take `CN(c1ccc(-c2cc(-c3cnn4c3CNCC4)ccc2O)nn1)C1CC(C)(C)NC(C)(C)C1` [Example 32-3, 2-(6-(methyl(2,2,6,6-tetramethylpiperidin-4-yl)amino)pyridazin-3-yl)-4-(4,5,6,7-tetrahydropyrazolo[1,5-a]pyrazin-3-yl)phenol]: under setting [1], the pEC50 was 6.70 and the “SMN activity Fold” value was found to be 2.44 Fold.

For the compound `CN(c1ccc(-c2ccc(-c3ccc(=O)n(C)c3)cc2O)nn1)C1CC(C)(C)NC(C)(C)C1` [Example 41-6, 5-(3-hydroxy-4-(6-(methyl(2,2,6,6-tetramethylpiperidin-4-yl)amino)pyridazin-3-yl)phenyl)-1-methylpyridin-2(1H)-one], under setting [1], the negative logarithm of the EC50 (pEC50) is 8.00 and the “SMN activity Fold” value is given as 2.67 Fold.

For the compound `Oc1cc(-n2cccn2)ccc1-c1ccc(OCC2CCNC2)nn1` (single isomer, unassigned) [Example 17-9, 5-(1H-pyrazol-1-yl)-2-(6-(pyrrolidin-3-ylmethoxy)pyridazin-3-yl)phenol], under setting [1], the pEC50 was 5.78 and the “SMN activity Fold” value is 2.63 Fold.

In the case of `CC1(N)CCN(c2ccc(-c3ccc(-n4cccn4)cc3O)nn2)CC1` [Example 18-12, 2-[6-(4-amino-4-methyl-piperidin-1-yl)-pyridazin-3-yl]-5-pyrazol-1-yl-phenol], under setting [1], the pEC50 was 6.10 and the “SMN activity Fold” value is 2.62 Fold.

On to `CN(c1ccc(-c2cc(C#N)ccc2O)nn1)C1CC(C)(C)NC(C)(C)C1` [Example 3-5, 4-hydroxy-3-(6-(methyl(2,2,6,6-tetramethylpiperidin-4-yl)amino)pyridazin-3-yl)benzonitrile], for which, under setting [2], the negative-log EC50 (pEC50) is 7.00 and the “SMN activity Fold” value was determined as 2.38 Fold.

Consider `CN(c1ccc(-c2cc(C3=CCCC3)ccc2O)nn1)C1CC(C)(C)NC(C)(C)C1` [Example 32-5, 4-(cyclopent-1-en-1-yl)-2-(6-(methyl(2,2,6,6-tetramethylpiperidin-4-yl)amino)pyridazin-3-yl)phenol], for which, under setting [1], the pEC50 was 6.64 and the “SMN activity Fold” value is reported as 2.52 Fold.

As to `CN(c1ccc(-c2ccc(-n3ccnc3)cc2O)nn1)C1CC(C)(C)NC(C)(C)C1` [Example 12-1, 5-(1H-imidazole-1-yl)-2-(6-(methyl(2,2,6,6-tetramethyl-piperidin-4-yl)amino)pyridazin-3-yl)phenol], under setting [1], the pEC50 was 8.40 and the “SMN activity Fold” value is given as 3.13 Fold.

As to `Oc1cc(-n2cccn2)ccc1-c1ccc(C2=CCNCC2)nn1` [Example 19-1, 5-pyrazol-1-yl-2-[6-(1,2,3,6-tetrahydro-pyridin-4-yl)-pyridazin-3-yl]-phenol], under setting [1], the pEC50 was 6.32 and the “SMN activity Fold” value worked out at 2.77 Fold.

Turning to `Oc1cc(-n2cccn2)ccc1-c1ccc(N2CC3CNC(C3)C2)nn1` (centres unmarked) [Example 18-8, 2-[6-(3,6-diaza-bicyclo[3.2.1]oct-3-yl)-pyridazin-3-yl]-5-pyrazol-1-yl-phenol], under setting [1], the pEC50 was 6.01 and the “SMN activity Fold” value came out at 2.32 Fold.

Regarding `CN(c1ccc(-c2cc(F)c(-c3cn[nH]c3)cc2O)nn1)C1CC(C)(C)NC(C)(C)C1` [Example 34-2, 4-fluoro-2-(6-(methyl(2,2,6,6-tetramethylpiperidin-4-yl)amino)pyridazin-3-yl)-5-(1H-pyrazol-4-yl)phenol], under setting [1], the pEC50 is 8.70 and the “SMN activity Fold” value turned out to be 2.49 Fold.
